Results on 16 molecules are retold here after US10995070B2, “Acetyl-CoA carboxylase modulators” (Monsanto Technology LLC, priority 2013, dated 2021).

Experiment [1] has as its target Ustilago maydis acetyl CoA carboxylase (ACCase) (Ustilago maydis, UniProt A0A0D1DYD5). The experiment is described as follows: ACCase enzymatic assay (coupled PK/LDH, NADH OD340). It is filed as biochemical. The settings on record: read-out: ACCase Inhibitory Activity IC50. The procedure: Ustilago maydis acetyl CoA carboxylase (ACCase) was cloned, expressed, and purified as described (Weatherly et al, Biochem. J., 2004) and the test compounds were tested in a 96-well plate format. Primary in vitro screening consisted of obtaining dose response data at 100, 33, 10, and 1 μM inhibitor. Actives in the primary screen were re-tested to establish IC50 values.
Direct detection of the conversion of acetyl CoA to malonyl CoA by ACCase was not feasible, but during this process ATP is converted to ADP which allowed for detection through a standard reaction coupling with ADP recycling to the oxidation of NADH. Thus, ACCase activity was measured via kinetic OD340 measurements of the conversion of NADH to NAD in a coupled reaction involving the conversion of phosphoenolpyruvate (PEP) to lactate.
The complete 200 ul reaction mixture contained 52.5 mM HEPES (pH8), 2.625 mM MgCl2, 1 mM ATP, 0.525 mM DTT, 11 mM NaHCO3, 1% DMSO with or without inhibitor, 1× pyruvate kinase/lactate dehydrogenase (PK/LDH), 0.3 mM NADH, 0.5 mM PEP, and 5 μg ACCase. The reactions were incubated at 30° C. for 10 minutes and then initiated by the addition of 0.33 mM acetyl CoA. The initiated reactions were read immediately via plate reader at OD340 and kinetic readings were acquired every 20 s for 15 minutes while keeping the temperature at 30° C.
A slope of the kinetic curve was determined by using the 2 to 7 minute data which was then calculated as percent inhibition relative to the no inhibitor control.
The primary screens were conducted in duplicate and the IC50's conducted in triplicate. Averages were reported along with standard deviation calculation to generate error bars.
Each plate contained its own controls and consisted of a DMSO only control, 5-fold titration series of soraphen from 2 μM to 3.2 nM, and an ADP coupled reaction control. […]
A slope of the kinetic curve was determined by using the 2 to 7 minute data which was then calculated as percent inhibition relative to the no inhibitor control. Those compounds which had no significant PK/LDH inhibition at or above the IC50 in the ACCase assay, were considered to be valid modulators of only ACCase.

In a further experiment the test system is Diplodia maydis. The experiment is described as follows: Fungal growth inhibition assay, D. maydis. The settings on record: 48 h. It is filed as cell-based. The procedure: (§1) Spores were isolated from previously sub-cultured plates of Botrytis cinerea, Phytophthora capsici, Fusarium moniliforme, Fusarium viguliforme, Collectotrichum graminicola, and Diplodia maydis. All spores were filtered and collected in a sterile glass bowl to isolate the spores from the mycelia. The isolation and sub-culture plate condition for each pathogen is described below.
Spore isolation for D. maydis: A 3-4 week old PDA (pre-mix) plate was removed from 26° C. incubator with a light/dark 12 hour cycle and the mycelia were treated with 6-7 ml of sterile distilled water, scraped into a sterile petri dish, and smashed to open the pycnidia. The spores were then collected in a sterile filter bowl containing a fluted piece of filter paper and poured into a conical tube.
(§2) After spore isolation, pathogen spores were counted on a hemocytometer to calculate the spores/ml. In 17% V8 liquid media containing 3 g/L CaCO3, isolated spores were diluted to individual concentrations based on the growth curves at 48 hours of each pathogen. The spore concentrations for each pathogen were as follows: B. cinerea—10,000 sp/ml; P. capsici—300 sp/ml; F. monliforme—500 sp/ml; F. virguliforme—500 sp/ml; C. graminicola—3,000 sp/ml; and D. maydis—3,000 sp/ml.
(§3) Chemistry stocks were dissolved in DMSO at 2.5 mg/ml. Chemistry was diluted in a 96-well stock plate in five-fold dilutions to obtain a final concentration of 50, 10, and 2 ppm in vitro. The final concentration of the positive control after the five-fold dilutions was as follows: soraphen—0.5, 0.1, and 0.02 ppm. Negative controls on each plate included 2% DMSO, water containing spores and media, and a blank for background subtraction.
(§4) In a 96-well plate the spore solution, chemistries, and controls were combined to make the final solution concentrations mentioned above. Upon addition of the chemistry, an OD600 reading was done to assess chemical precipitation. The 96-well plates were incubated in plastic tubs containing wet paper towels under the following conditions, 25° C. in the dark for P. capsici and B. cinerea or 26° C. with light/dark cycle for C. graminicola, D. maydis, F. virguliforme, F. monliforme. Plate readings were repeated at 24 and 48 hrs. Visual ratings were performed at 24 and 48 hrs to check for precipitation and confirm efficacy. Visual and OD600 ratings of the chemistry at 48 hours were compared to the 2% DMSO control to determine the percent of pathogen growth inhibition.

The subject of experiment [2] is Collectotrichum graminicola. The experiment in a line: Fungal growth inhibition assay, C. graminicola. The settings on record: Colletotrichum graminicola, 48 h. Type of experiment: cell-based. The procedure:
as §1
Spore isolation for C. graminicola: A 1-2 week old oatmeal agar (pre-mix) plate was removed from 26° C. incubator with a light/dark 12 hour cycle and the mycelia were treated with 10-15 ml of filter sterilized distilled water. The mycelia were scraped to re-suspend the spores. The spores were then collected in a sterile filter bowl containing a piece of sterile cheesecloth and poured into a conical tube.
as §2, §3, §4

Another experiment has as its system Fusarium virguliforme. The experiment is described as follows: Fungal growth inhibition assay, F. virguliforme. It is filed as cell-based. The note with it: 48 h. The procedure: as §1
Spore isolation for F. virguliforme: A 2-3 week old PDA (pre-mix) plate containing cefotaxime (100 mg/L) and kanamycin (50 mg/L) was removed from 26° C. incubator with a light/dark 12 hour cycle and the mycelia were treated with 5-10 ml of filter sterilized distilled water. The mycelia were scraped to re-suspend the spores. The spores were then collected in a sterile filter bowl containing a fluted piece of filter paper and poured into a conical tube.
as §2, §3, §4

Another experiment relates to Saccharomyces cerevisiae. The experiment is described as follows: Yeast growth inhibition assay. It is filed as cell-based. The note with it: read-out: S. cerevisiae % growth inhibition. The procedure:
Yeast cells (Ade2 strain) were grown in liquid YPD (1% yeast extract, 2% peptone, 2% dextrose) for 16 hours at 30° C. from previously sub-cultured plates of Saccharomyces cerevisiae. The OD600 of the overnight culture was checked via spectrophotometer and diluted to a concentration of 2×10^4 cells/ml.
Chemistry stocks were dissolved in DMSO to a concentration of 10 mM. Chemistry stocks were further diluted in a 96-well stock plate to obtain final concentrations of […] in 1% DMSO. The final concentrations of the soraphen positive control were 400, 40, and 3.2 nM. The negative controls on each plate included a background subtraction control containing yeast and 1% DMSO (without chemistry) and a second contamination control containing YPD (with no yeast) and 1% DMSO (without chemistry).
98 μl liquid YPD was added to 2 μl diluted stock of DMSO per well and mixed thoroughly. After mixing, 100 μl of the diluted yeast solution was added to bring the final yeast concentration to 1×10^4 cells/ml or 2000 cells per well. An initial spectrophotometric reading at OD600 was conducted on the entire plate and served as the 0 hours time point used to subtract any background. […] […] […] All experiments were conducted in triplicate. Averages were reported along with standard deviation calculation to generate error bars. Each plate contained its own controls and consisted of inoculated+DMSO, non-inoculated+DMSO, and a titration series of soraphen at 400, 40, and 3.2 nM.

Sequence of Ustilago maydis acetyl CoA carboxylase (ACCase) (A0A0D1DYD5 1-2185): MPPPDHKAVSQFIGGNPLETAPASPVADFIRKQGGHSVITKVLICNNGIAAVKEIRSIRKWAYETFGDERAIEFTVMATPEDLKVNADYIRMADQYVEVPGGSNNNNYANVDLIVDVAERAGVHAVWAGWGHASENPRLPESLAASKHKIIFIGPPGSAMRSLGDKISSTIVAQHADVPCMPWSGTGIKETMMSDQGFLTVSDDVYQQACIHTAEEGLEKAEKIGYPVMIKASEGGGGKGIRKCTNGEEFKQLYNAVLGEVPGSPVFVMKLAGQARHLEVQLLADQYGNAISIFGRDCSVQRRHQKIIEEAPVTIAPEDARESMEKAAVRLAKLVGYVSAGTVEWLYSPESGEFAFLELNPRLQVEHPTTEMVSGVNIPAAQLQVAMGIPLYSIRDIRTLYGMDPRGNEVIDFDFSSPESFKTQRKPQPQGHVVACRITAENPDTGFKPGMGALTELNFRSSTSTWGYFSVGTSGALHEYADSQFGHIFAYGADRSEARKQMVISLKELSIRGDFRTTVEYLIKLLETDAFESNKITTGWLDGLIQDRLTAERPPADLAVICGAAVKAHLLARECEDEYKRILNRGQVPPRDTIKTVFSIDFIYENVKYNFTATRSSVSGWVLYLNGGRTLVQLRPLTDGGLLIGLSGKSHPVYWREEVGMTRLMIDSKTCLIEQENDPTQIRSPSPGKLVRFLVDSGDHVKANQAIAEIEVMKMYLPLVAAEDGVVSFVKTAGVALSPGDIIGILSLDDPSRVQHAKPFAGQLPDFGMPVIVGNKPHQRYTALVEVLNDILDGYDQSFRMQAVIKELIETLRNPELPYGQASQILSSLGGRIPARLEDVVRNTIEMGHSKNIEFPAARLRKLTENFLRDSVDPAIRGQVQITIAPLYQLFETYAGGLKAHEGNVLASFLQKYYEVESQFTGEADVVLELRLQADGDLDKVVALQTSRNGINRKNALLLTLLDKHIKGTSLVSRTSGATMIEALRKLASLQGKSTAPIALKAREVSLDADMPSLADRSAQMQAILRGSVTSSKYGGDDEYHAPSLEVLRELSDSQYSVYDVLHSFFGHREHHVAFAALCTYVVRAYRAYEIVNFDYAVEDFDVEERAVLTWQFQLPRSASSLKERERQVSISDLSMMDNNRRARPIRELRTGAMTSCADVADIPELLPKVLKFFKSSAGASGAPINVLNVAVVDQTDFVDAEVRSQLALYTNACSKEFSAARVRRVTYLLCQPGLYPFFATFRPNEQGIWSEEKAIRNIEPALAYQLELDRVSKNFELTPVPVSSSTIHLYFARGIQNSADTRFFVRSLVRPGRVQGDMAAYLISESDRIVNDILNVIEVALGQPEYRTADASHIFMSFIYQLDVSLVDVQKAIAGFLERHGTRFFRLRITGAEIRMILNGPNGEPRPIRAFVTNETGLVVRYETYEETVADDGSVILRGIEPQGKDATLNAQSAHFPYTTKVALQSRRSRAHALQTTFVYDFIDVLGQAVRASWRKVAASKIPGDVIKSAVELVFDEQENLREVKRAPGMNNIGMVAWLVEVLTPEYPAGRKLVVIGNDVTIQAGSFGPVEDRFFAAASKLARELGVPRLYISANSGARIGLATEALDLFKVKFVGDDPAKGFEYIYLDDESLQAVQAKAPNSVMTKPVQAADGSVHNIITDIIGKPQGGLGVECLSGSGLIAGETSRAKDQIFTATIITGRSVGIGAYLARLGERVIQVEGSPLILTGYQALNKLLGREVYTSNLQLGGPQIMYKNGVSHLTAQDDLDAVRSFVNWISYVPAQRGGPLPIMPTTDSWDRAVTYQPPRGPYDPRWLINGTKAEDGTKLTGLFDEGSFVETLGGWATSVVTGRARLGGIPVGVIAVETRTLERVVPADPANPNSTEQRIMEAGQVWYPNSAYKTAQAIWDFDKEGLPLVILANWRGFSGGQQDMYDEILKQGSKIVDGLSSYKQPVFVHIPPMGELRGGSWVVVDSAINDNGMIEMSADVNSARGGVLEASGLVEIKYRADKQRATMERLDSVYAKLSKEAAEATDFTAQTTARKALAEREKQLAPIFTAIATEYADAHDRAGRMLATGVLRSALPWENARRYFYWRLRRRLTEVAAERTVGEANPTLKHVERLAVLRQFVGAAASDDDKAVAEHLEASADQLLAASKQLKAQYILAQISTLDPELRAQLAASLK

As for `O=C(COc1ccc(-c2cc(-c3ccccc3)c3cc(Cl)ccc3n2)cc1)NCCO` [Formula Ia-v, 2-(4-(6-chloro-4-phenylquinolin-2-yl)phenoxy)-N-(2-hydroxyethyl)acetamide], in experiment [1], the half-inhibitory concentration (IC50) was 13 µM.

Regarding `COc1cccc2c(-c3ccccc3)cc(-c3ccc(OCC(N)=O)cc3)nc12` [Formula Ia-iii, 2-(4-(8-methoxy-4-phenylquinolin-2-yl)phenoxy)acetamide], in experiment [1], the IC50 was 0.549 µM.

For `COc1cccc2c(-c3ccccc3)cc(-c3ccc(CC(N)=O)s3)nc12` [Formula Ib-v, 2-(5-(8-methoxy-4-phenylquinolin-2-yl)thiophen-2-yl)acetamide], the IC50 in experiment [1] was 4.21 µM.

Consider `COC(=O)COc1ccc(-c2cc(-c3ccccc3)c3ccccc3n2)cc1` [Formula IIc-i, methyl 2-(4-(4-phenylquinolin-2-yl)phenoxy)acetate], for which, in the experiment on Diplodia maydis, the inhibition at 2 ppm turned out to be 12% and the inhibition at 10 ppm is 44%.

As for `NC(=O)Cc1ccc(-c2nc3ccccc3c(-c3ccccc3)c2Cl)s1` [Formula Ib-i, 2-(5-(3-chloro-4-phenylquinolin-2-yl)thiophen-2-yl)acetamide], in experiment [1], the IC50 worked out at 1.32 µM. In experiment [2], this molecule came in with an inhibition at 2 ppm of 44% and an inhibition at 10 ppm of 51%. In the experiment on Fusarium virguliforme, this molecule had an inhibition at 2 ppm of 43% and an inhibition at 10 ppm of 31%.

In the experiment with Diplodia maydis, `COC(=O)Cc1ccc(-c2nc3ccccc3c(-c3ccccc3)c2Cl)s1` [Formula IId-ii, methyl 2-(5-(3-chloro-4-phenylquinolin-2-yl)thiophen-2-yl)acetate] showed an inhibition at 2 ppm of 26% and an inhibition at 10 ppm of 30%. Besides, in the experiment on Fusarium virguliforme, testing at 2 ppm gave an inhibition of 44% and testing at 10 ppm gave an inhibition of 34%.

With `COc1ccc(-c2cc(-c3ccccc3)c3ccccc3n2)cc1OC` [Formula IV-ii, 2-(3,4-dimethoxyphenyl)-4-phenylquinoline], the concentration for half-maximal inhibition (IC50) in experiment [1] worked out at 7.82 µM. In experiment [2], the inhibition at 2 ppm came out at 34% and the inhibition at 10 ppm stood at 41%. Besides, in the experiment on Diplodia maydis, the inhibition at 2 ppm worked out at 26% and at 10 ppm the inhibition was 34%.

Regarding `CO[C@H]1CCCC[C@@H](c2ccccc2)OC(=O)[C@@H](C)[C@@]2(O)O[C@H]([C@@H](C)[C@H](O)[C@H]2OC)[C@@H](C)/C=C/[C@H]1OC` [Soraphen, reference compound], the IC50 in experiment [1] came to 0.0458 µM.

As for `COc1ccc2c(-c3ccccc3)cc(SC(C)C(N)=O)nc2c1` (centres unmarked) [Formula III-i, 2-((7-methoxy-4-phenylquinolin-2-yl)thio)propanamide], the IC50 in experiment [1] was 8.8 µM.

Consider `NC(=O)Cc1ccc(-c2cc(-c3ccccc3)c3ccccc3n2)s1` [Formula Ib-iii, 2-(5-(4-phenylquinolin-2-yl)thiophen-2-yl)acetamide], for which the concentration for half-maximal inhibition (IC50) in experiment [1] came to 8.18 µM. In experiment [2], this molecule showed an inhibition at 2 ppm of 31%, an inhibition at 10 ppm of 98% and an inhibition at 50 ppm of 81%. Further, in the experiment with Saccharomyces cerevisiae (3.7 μM), the inhibition at 3.7 µM was determined as 0%. Further, the inhibition at 11.1 µM with Saccharomyces cerevisiae (11.1 μM) came to 14%. For the same molecule, the inhibition at 33.3 µM with Saccharomyces cerevisiae (33.3 μM) was found to be 57%. In addition, the inhibition at 100 µM in the experiment with Saccharomyces cerevisiae (100 μM) is 99%.

Take `COC(=O)Cc1ccc(-c2cc(-c3ccccc3)c3ccccc3n2)s1` [Formula IId-i, methyl 2-(5-(4-phenylquinolin-2-yl)thiophen-2-yl)acetate]: the IC50 in experiment [1] came to 12 µM. Also, in experiment [2], at 2 ppm the inhibition was 6%, testing at 10 ppm gave an inhibition of 32% and 50 ppm produced 79% inhibition. In the experiment on Diplodia maydis, this molecule yielded an inhibition at 2 ppm of 16% and an inhibition at 10 ppm of 26%.

For `NC(=O)COc1ccc(-c2cc(-c3ccccc3)c3ccccc3n2)cc1` [Formula Ia-i, 2-(4-(4-phenylquinolin-2-yl)phenoxy)acetamide], the IC50 in experiment [1] was found to be 0.515 µM.

As to `COc1ccc(-c2cc(-c3ccccc3)c3ccccc3n2)cc1` [Formula IV-i, 2-(4-methoxyphenyl)-4-phenylquinoline], the IC50 in experiment [1] is 21.2 µM. In experiment [2], this molecule showed an inhibition at 2 ppm of 35% and an inhibition at 10 ppm of 22%. Besides, in the experiment on Diplodia maydis, 2 ppm produced 21% inhibition and testing at 10 ppm gave an inhibition of 44%.

Consider `CCc1cccc2c(-c3ccccc3)cc(-c3ccc(OCC(N)=O)cc3)nc12` [Formula Ia-iv, 2-(4-(8-ethyl-4-phenylquinolin-2-yl)phenoxy)acetamide], for which, in experiment [1], the IC50 was 8.15 µM.

With `CCc1cccc2c(-c3ccccc3)cc(-c3ccc(CC(N)=O)s3)nc12` [Formula Ib-vi, 2-(5-(8-ethyl-4-phenylquinolin-2-yl)thiophen-2-yl)acetamide], in experiment [1], the 50% inhibitory concentration (IC50) is 9.58 µM.

Turning to `O=C(O)COc1ccc(-c2cc(-c3ccccc3)c3ccccc3n2)cc1` [Formula Ia-ii, 2-(4-(4-phenylquinolin-2-yl)phenoxy)acetic acid], the concentration for half-maximal inhibition (IC50) in experiment [1] turned out to be 0.165 µM.

The IC50 is the concentration that inhibits the measured activity by half. Usually inhibition stands for the change of the read-out against control, counted positive when it falls.
